Reference: US20250262199A1, “TREATMENT OF AUTOIMMUNE SKIN DISEASE” (ASLAN PHARMACEUTICALS PTE LTD, priority 2022, published 2025)

Legend:
Type in all cases: in vivo
[1] = tested on: vitiligo mouse model (transgenic Krt14-KitL* (SCF) mice); test: Vitiligo scoring in vitiligo mouse model; conditions: oral gavage, 6 weeks (30 treatment days), FIG. 1
PMEL T cells = test: Flow cytometry of PMEL T cell counts in tissues of vitiligo mouse model
[2] = tested on: Alopecia areata mouse model (C3H/HeJ mice); test: Hair coverage in Alopecia areata mouse model (C3H/HeJ skin graft); conditions: 150 or 300 mg/kg/day once daily oral gavage, week 8 time point (10 weeks after engraftment), vs vehicle; interim data; FIG. 3
Description: The C3H/HeJ mouse strain is known to spontaneously develop alopecia (AA) at a low frequency over a prolonged time frame. Transplantation of AA-affected skin from a C3H/HeJ mouse to unaffected C3H/HeJ recipients will induce the development of AA in nearly 100% of recipients over 4-8 weeks. Accordingly, to produce the AA mouse model, AA-affected C3H/HeJ skin was grafted onto groups of unaffected C3H/HeJ mice. The following treatment groups (n=10 per treatment group) were tested: • 1. Vehicle 0.5% methylcellulose (negative control) • 2. 150 mg/kg/day farudostat • 3. 300 mg/kg/day farudostat Treatments were administered once daily by oral gavage starting 2 weeks after engraftment and concluded after 12 weeks (84 days) of treatment. Photographs were taken at baseline, and every 4 weeks until the end of study Ventral hair growth was scored based on the photographs. Any mouse that had >98% hair coverage was classified as ‘no hair loss’.

COc1cccc(-c2cc(F)c(Nc3ncccc3C(=O)O)c(F)c2)c1 [farudostat, 2-(3,5-difluoro-3′-methoxybiphenyl-4-ylamino) nicotinic acid]
final mean vitiligo score ([1]; 75 mg/kg/day, vs vehicle): improvement in vitiligo score | final mean vitiligo score ([1]; 150 mg/kg/day, vs vehicle and 75 mg/kg/day group): greater improvement in vitiligo score compared to the 75 mg/kg/day group | mean PMEL count, 150 mg/kg/day compared to 75 mg/kg/day (PMEL T cells; 150 mg/kg/day, oral gavage, FIGS. 2A to 2D): greater reduction in mean PMEL count compared to 75 mg/kg/day | mean PMEL T cell count, dermis (PMEL T cells; farudostat 75 and 150 mg/kg/day, oral gavage, end of experiment, FIG. 2B): reduction in mean Pmel T cell count | mean PMEL T cell count, epidermis (PMEL T cells; farudostat 75 and 150 mg/kg/day, oral gavage, end of experiment, FIG. 2C): reduction in mean Pmel T cell count | mean PMEL count, spleen (PMEL T cells; spleen, compared with anti-IFNγ positive control, FIG. 2D): reduction in mean PMEL count in the spleen that was even greater than that observed for anti-IFNγ | mean % hair coverage [2]: slight improvement in % hair coverage
